For ten molecules, IC50 results are on record in ChEMBL document CHEMBL4270495, “Oleanane-, ursane-, and quinone methide friedelane-type triterpenoid derivatives: Recent advances in cancer treatment” (Eur J Med Chem, 2017).

Common to all, as to assay type: functional, cell-based
For one experiment, the system named is BGC-823. Put plainly: Cytotoxicity in human BGC823 cells assessed as reduction in cell viability incubated for 72 hrs by MTT assay. The conditions noted are these: BGC-823, 72 h.
Another experiment relates to HepG2. The experiment can be described thus: Cytotoxicity in human HepG2 cells assessed as reduction in cell viability incubated for 72 hrs by MTT assay. Conditions: HepG2, 72 h.
In a further experiment the test system is HeLa. Put plainly: Cytotoxicity in human HeLa cells assessed as reduction in cell viability incubated for 72 hrs by MTT assay. A general note: Formazan colour is commonly taken as a measure of viable cells.
Experiment [1] relates to HT-29. Put plainly: Cytotoxicity in human HT-29 cells assessed as reduction in cell viability incubated for 72 hrs by MTT assay. The conditions noted are these: HT-29, 72 h.
The next experiment relates to PC-3. The experiment can be described thus: Cytotoxicity in human PC3 cells assessed as reduction in cell viability incubated for 96 hrs by SRB assay. The conditions noted are these: PC-3, 96 h. On the technique in general: Sulforhodamine B stains cellular protein and so reports cell mass.
The subject of another experiment is CT26. The experiment can be described thus: Cytotoxicity in mouse CT26 cells assessed as reduction in cell viability incubated for 96 hrs by SRB assay. Conditions: CT26, 96 h.
Experiment [2] deals with HT-29. The experiment can be described thus: Cytotoxicity in human HT-29 cells assessed as reduction in cell viability incubated for 96 hrs by SRB assay. Conditions: HT-29, 96 h.
The subject of the next experiment is DU-145. The experiment can be described thus: Cytotoxicity in human DU145 cells assessed as reduction in cell viability incubated for 96 hrs by SRB assay. The conditions noted are these: DU-145, 96 h.
The next experiment relates to MDA-MB-231. The experiment can be described thus: Cytotoxicity in human MDA-MB-231 cells assessed as reduction in cell viability incubated for 96 hrs by SRB assay. The conditions noted are these: MDA-MB-231, 96 h.
The test system of the next experiment is 4T1. The experiment can be described thus: Cytotoxicity in mouse 4T1 cells assessed as reduction in cell viability incubated for 96 hrs by SRB assay. The conditions noted are these: 4T1, 96 h.
The test system of a further experiment is HCT-8. The experiment can be described thus: Cytotoxicity in human HCT8 cells assessed as reduction in cell viability incubated for 96 hrs by SRB assay. The conditions noted are these: HCT-8, 96 h.
Another experiment concerns HCT-116. The experiment can be described thus: Cytotoxicity in human HCT116 cells assessed as reduction in cell viability incubated for 96 hrs by SRB assay. The conditions noted are these: HCT-116, 96 h.

Molecules are shown by their SMILES. pIC50: −log10 of the molar value.

Turning to `Cc1nc(C)c(COC(=O)[C@]23CCC(C)(C)C[C@H]2C2=CC[C@@H]4[C@@]5(C)CC[C@H](OC(=O)[C@H](C)N)C(C)(C)[C@@H]5CC[C@@]4(C)[C@]2(C)CC3)nc1C`, the pIC50 in the experiment on BGC-823 is 5.35; with HepG2, 5.63; with HeLa it was 5.11; in the experiment on HT-29 [1] it was 5.32.
Turning to `COC(=O)[C@@]1(C)CC[C@]2(C)CC[C@]3(C)C(=CC(=O)[C@@H]4[C@@]5(C)Cc6cn(S(C)(=O)=O)nc6C(C)(C)[C@@H]5CC[C@]43C)[C@H]2C1`, the negative-log IC50 (pIC50) was 4.72 with PC-3; 4.82 with CT26; 4.73 with HT-29 [2]; less than 4.30 in the experiment with DU-145; 4.54 with MDA-MB-231; 4.90 in the experiment with 4T1. Also, the results for the negative-log IC50 (pIC50) with HCT-8 and in the experiment on HCT-116 were 4.61 and 5.06, respectively.
As to `COC(=O)[C@@]1(C)CC[C@]2(C)CC[C@]3(C)C(=CC(=O)[C@@H]4[C@@]5(C)Cc6c(n[nH]c6C(F)(F)F)C(C)(C)[C@@H]5CC[C@]43C)[C@H]2C1`, the pIC50 in the experiment on PC-3 is 4.70; in the experiment on CT26, 4.66; in the experiment on HT-29 [2], 4.56; in the experiment with DU-145, 4.47; in the experiment with MDA-MB-231 it was 4.56; in the experiment with 4T1, 4.81. In addition, the negative logarithm of the IC50 (pIC50) with HCT-8 is 4.70; in the experiment with HCT-116, 4.92.
As to `CCOC(=O)c1[nH]nc2c1C[C@]1(C)[C@H]3C(=O)C=C4[C@H]5C[C@@](C)(C(=O)OCc6ccccc6)CC[C@]5(C)CC[C@@]4(C)[C@]3(C)CC[C@H]1C2(C)C`, the negative-log IC50 (pIC50) was 4.71 in the experiment on PC-3; 4.75 with CT26; 4.90 in the experiment on HT-29 [2]; 4.62 in the experiment on DU-145; 4.78 with MDA-MB-231; 5.24 with 4T1. In addition, the pIC50 with HCT-8 was 5.00; in the experiment on HCT-116, 5.09.
For the molecule `Cc1nc(C)c(COC(=O)[C@]23CCC(C)(C)C[C@H]2C2=CC[C@@H]4[C@@]5(C)CC[C@H](OC(=O)[C@@H](N)CO)C(C)(C)[C@@H]5CC[C@@]4(C)[C@]2(C)CC3)nc1C`, the pIC50 in the experiment with BGC-823 is 5.31; in the experiment with HepG2 it was 5.32; in the experiment on HeLa, 5.28; in the experiment with HT-29 [1], 5.32.
As to `Cc1nc(C)c(COC(=O)[C@]23CCC(C)(C)C[C@H]2C2=CC[C@@H]4[C@@]5(C)CC[C@H](OC(=O)[C@@H]6CCCN6)C(C)(C)[C@@H]5CC[C@@]4(C)[C@]2(C)CC3)nc1C`, the pIC50 was 5.30 in the experiment on BGC-823, 5.62 in the experiment on HepG2, 5.17 with HeLa and 5.49 in the experiment on HT-29 [1].
With `COC(=O)[C@@]1(C)CC[C@]2(C)CC[C@]3(C)C(=CC(=O)[C@@H]4[C@@]5(C)Cc6c[nH]nc6C(C)(C)[C@@H]5CC[C@]43C)[C@H]2C1`, the negative logarithm of the IC50 (pIC50) was 4.58 in the experiment with PC-3; 4.58 in the experiment with CT26; 4.50 in the experiment with HT-29 [2]; 4.52 in the experiment on DU-145; 4.48 with MDA-MB-231; 4.83 in the experiment on 4T1. Moreover, the values for the negative logarithm of the IC50 (pIC50) in the experiment on HCT-8 and in the experiment on HCT-116 were 4.50 and 4.88, respectively.
Take `CC1(C)c2n[nH]cc2C[C@]2(C)[C@H]3C(=O)C=C4[C@H]5C[C@@](C)(C(=O)OCc6ccccc6)CC[C@]5(C)CC[C@@]4(C)[C@]3(C)CC[C@@H]12`: the pIC50 is 4.91 in the experiment on PC-3; 4.70 in the experiment on CT26; 4.82 in the experiment on HT-29 [2]; 4.72 in the experiment with DU-145; 4.74 in the experiment with MDA-MB-231; 5.20 in the experiment with 4T1. Besides, the values for the pIC50 with HCT-8 and in the experiment with HCT-116 were 4.88 and 5.13, respectively.
For `C[C@H]1[C@H](C)CC[C@]2(C(=O)OCCCCBr)CC[C@]3(C)C(=CC[C@@H]4[C@@]5(C)CC[C@H](O)C(C)(C)[C@@H]5CC[C@]43C)[C@H]12` [BROMOBUTYL-3BETA-HYDROXY-URS-12-EN-28-OATE], the pIC50 in the experiment with BGC-823 was 5.00.
For the molecule `C[C@H]1[C@H](C)CC[C@]2(C(=O)OCCCBr)CC[C@]3(C)C(=CC[C@@H]4[C@@]5(C)CC[C@H](O)C(C)(C)[C@@H]5CC[C@]43C)[C@H]12` [BROMOPROPYL-3BETA-HYDROXY-URS-12-EN-28-OATE], the pIC50 with BGC-823 is 5.19.

By pIC50 is commonly meant −log10 of the IC50, conventionally taken in molar units.
